Assay results taken from doi:10.1101/2025.04.16.649181, “Design of peptide-based PAC1 antagonists combining molecular dynamics simulations and a biologically relevant cell-based assay” (bioRxiv, 2025).
No end group written: not given here.

How the values were obtained:
[1] = target: PAC1 endogenously expressed in SH-SY5Y cells (human (endogenous in SH-SY5Y)) (UniProt P41586)
[2] = target: T1, PAC1 (endogenous, mainly PAC1null, SH-SY5Y) (Homo sapiens, UniProt P41586); assay: CBS assay, antagonism of P38-induced cAMP in SY5Y_CBS cells; assay type: cell-based
T1 construct: Neuroblastoma SH-SY5Y cells endogenously xpressing hPAC1 and engineered to express CBS; endogenous in cells
T1 sequence (P41586 21-468): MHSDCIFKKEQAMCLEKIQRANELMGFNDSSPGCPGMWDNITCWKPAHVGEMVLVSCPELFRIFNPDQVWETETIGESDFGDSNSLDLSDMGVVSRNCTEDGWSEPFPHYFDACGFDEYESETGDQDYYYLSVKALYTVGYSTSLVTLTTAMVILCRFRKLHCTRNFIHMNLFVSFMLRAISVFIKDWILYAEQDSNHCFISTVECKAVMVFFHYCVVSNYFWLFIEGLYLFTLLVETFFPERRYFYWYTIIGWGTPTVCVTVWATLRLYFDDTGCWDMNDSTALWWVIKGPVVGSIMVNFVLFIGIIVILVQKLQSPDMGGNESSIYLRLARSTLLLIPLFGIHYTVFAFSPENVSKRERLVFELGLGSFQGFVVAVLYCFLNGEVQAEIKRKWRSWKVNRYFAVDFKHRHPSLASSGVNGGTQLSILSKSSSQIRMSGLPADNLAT
Source text: (§1) A single clone of the SH-SY5Y cell line stably expressing a cAMP biosensor (SY5Y_CBS) was generated as previously described for HEK293_CBS and NS-1_CBS cells, using the retroviral vector pLHCX containing the cAMP biosensor and a hygromycin resistance gene. A HEK293_CBS_hPAC1 cell clone was generated by transducing HEK293_CBS cells with the lentiviral vector pLX304 (GeneCopoeia, Rockville, MD) encoding the human PAC1hop (PAC1; GenBank accession no. BC143679) and a blasticidin resistance gene . Following transduction, cells were selected with the appropriate antibiotics (hygromycin or blasticidin) for 2 weeks. Single-cell clones were subsequently isolated by limiting dilution and assessed for PACAP-induced cAMP production using concentration-response assays.
(§2) The cyclic AMP biosensor (CBS) assay was performed using Gibco CO2-independent medium (ThermoFisher, catalog #18045-088). HEK293_CBS_hPAC1 or SY5Y_CBS cells were seeded in 96-well black/clear-bottom plates (MidSci, Fenton, MO) at a density of 6,000 cells per well and incubated overnight. The following day, the medium in each well was aspirated and replaced with fresh medium containing 1.5 mg/mL D-luciferin potassium salt substrate (Gold Biotechnology, St. Louis, MO) and 500 μM isobutyl-1-methylxanthine (IBMX), followed by incubation at 37 °C for 1 hour. Cells were then pre-treated with antagonists for 10 minutes before the addition of agonists (PACAP or forskolin). Plates were incubated at 37 °C for 1 hour, then brought to room temperature and equilibrated for 30 minutes. Luminescence was measured using a GloMax plate reader (Promega, Madison, WI).
(§3) GraphPad Prism ver. 9.0 or 10.0 (GraphPad Software Inc, Boston, MA) was used for data analysis. Concentration response curves were created using a four parameter logistic regression model. EC80 and IC50 parameters were obtained using non-linear regression curve fitting tools. EC80 was calculated as the effective concentration of the agonist required to produce 80% of the maximal response. IC50 was calculated as the concentration of the antagonist that produced 50% of the response induced by an agonist (either PACAP or forskolin) in the absence of the antagonist. Seven or eight different concentrations and three technical replicates per concentration were used for curve fitting. All data are presented as mean ± standard error of the mean (SEM).

[3] = target: T1, PAC1 (endogenous, mainly PAC1null, SH-SY5Y); assay: Direct cAMP ELISA, antagonism of P38 in SY5Y_CBS cells; assay type: cell-based
Description: Direct cAMP determinations were made using the DetectX® Direct Cyclic AMP Enzyme Immunoassay Kit (Arbor Assays, Ann Arbor, MI). SY5Y_CBS cells (200,000 cells per well) or HEK293_CBS cells (10,000 cells per well) were seeded into 96-well plates one day prior to the assay. These cell densities were optimized to ensure agonist responses fell within the linear range of the cAMP standard curve (0.16-10 pmol/mL cAMP). On the day of the assay, the medium was removed and replaced with fresh medium containing 500 μM IBMX. After a 20-minute incubation at 37 °C, antagonists were added and incubated for 10 minutes at 37 °C, followed by the addition of agonists for 30 minutes at 37 °C. Following the final incubation, the medium was aspirated, and cells were lysed with 200 μL of lysis buffer (provided in the kit) for 10 minutes at room temperature. Samples were then snap-frozen and stored at −80 °C overnight and thawed the next day to ensure complete cell lysis. The assay was completed by sequentially adding the cAMP peroxidase conjugate, anti-cAMP sheep antibody, substrate, and stop solution, according to the manufacturer’s instructions. Optical density was measured at 450 nm using a microplate spectrophotometer (Molecular Devices, San Jose, CA). Standard curves and data analysis were performed using GraphPad Prism with a sigmoidal four-parameter nonlinear regression model. Experiments conducted on different days with independently plated and assayed cells were considered biological replicates. Each experiment included three technical replicates.
as §3

[4] = target: T1, PAC1 (endogenous, mainly PAC1null, SH-SY5Y); assay: CBS assay, antagonism of P27-induced cAMP in SY5Y_CBS cells; assay type: cell-based
Source text: as §1, §2
For the high-throughput CBS screening assays, cells were plated at 2,000 (HEK293_CBS_hPAC1) or 3,000 (SY5Y_CBS) cells per well in […] of Gibco CO2-independent medium, in white 1,536-well tissue culture treated plates. After overnight incubation at 37 °C and 5% CO2, […] of luciferin/IBMX solution was added to the wells (final concentrations of 500 μM each) and plates were incubated at 37 °C for 1 hour. SMOLs (22.5 nL) were transferred to the assay plate, using a pintool device (HEK293 screen) or an ECHO acoustic liquid handler (Beckman Coulter, Brea, CA, SY5Y screen), to final concentrations (4 concentrations per compound) between 0.5 and 30 μM and cells were incubated at 37 °C for 1 hour (HEK293 screen) or 10 minutes (SY5Y screen). […] For forskolin counterscreening in SY5Y cells, forskolin instead of peptide was dispensed to the plate at a final concentration of 5 μM.
as §3

[5] = test system: PAC1; assay: CBS assay in NS-1 cells, endogenous PAC1; assay type: cell-based, rat; settings: NS-1 cells expressing CBS, n = 3
Description: Cell culture reagents were purchased from ThermoFisher Scientific (Waltham, MA) unless otherwise noted. Neuroscreen-1 (NS-1) cells (Cellomics, Halethorpe, MD) were grown on flasks or plates coated with Collagen I (rat tail) as described previously. NS-1 cells were cultured in RPMI-1640 media supplemented with 10% horse serum and 5% heat-inactivated Fetal Bovine Serum (Hyclone, Logan, UT). HEK293 and SH-SY5Y cells were purchased from ATCC (Gaithersburg, MD) and cultured with DMEM medium with 10% FBS. All cell culture medium were supplemented with 2 mM glutamine, 100 U/ml penicillin, and 100 μg/ml streptomycin.
A single clone of the SH-SY5Y cell line stably expressing a cAMP biosensor (SY5Y_CBS) was generated as previously described for HEK293_CBS and NS-1_CBS cells, using the retroviral vector pLHCX containing the cAMP biosensor and a hygromycin resistance gene. […] Single-cell clones were subsequently isolated by limiting dilution and assessed for PACAP-induced cAMP production using concentration-response assays.
The cyclic AMP biosensor (CBS) assay was performed using Gibco CO2-independent medium (ThermoFisher, catalog #18045-088). […] Luminescence was measured using a GloMax plate reader (Promega, Madison, WI).
GraphPad Prism ver. […] EC80 was calculated as the effective concentration of the agonist required to produce 80% of the maximal response. […]

[6] = test system: human PAC1hop (hPAC1); assay: cAMP biosensor (CBS) assay, agonist responses in HEK293_CBS_hPAC1; assay type: cell-based; settings: HEK293_CBS_hPAC1, IBMX pretreated, luminescence
Source text: as §1, §2
GraphPad Prism ver. 9.0 or 10.0 (GraphPad Software Inc, Boston, MA) was used for data analysis. Concentration response curves were created using a four parameter logistic regression model. EC80 and IC50 parameters were obtained using non-linear regression curve fitting tools. EC80 was calculated as the effective concentration of the agonist required to produce 80% of the maximal response. […]

[7] = target: T1, PAC1 (endogenous, mainly PAC1null, SH-SY5Y); assay: CBS assay, agonist potency in SY5Y_CBS cells; assay type: cell-based
Source text: A single clone of the SH-SY5Y cell line stably expressing a cAMP biosensor (SY5Y_CBS) was generated as previously described for HEK293_CBS and NS-1_CBS cells [30], using the retroviral vector pLHCX containing the cAMP biosensor and a hygromycin resistance gene. […] Following transduction, cells were selected with the appropriate antibiotics (hygromycin or blasticidin) for 2 weeks. Single-cell clones were subsequently isolated by limiting dilution and assessed for PACAP-induced cAMP production using concentration-response assays.

[8] = test system: HEK293_CBS cells; assay: cAMP biosensor (CBS) assay, agonist responses in parental HEK293_CBS; assay type: cell-based
[9] = target: PAC1 endogenously expressed in SH-SY5Y cells (human (endogenous in SH-SY5Y)) (UniProt P41586); remark: listed apart in the source
[10] = test system: PAC1; settings: ref 15 (maxadilan); cited from earlier work
Source text: Similarities include initial binding events between the C-terminal domain of the peptide with the extracellular domain (ECD) followed by insertion of the N-terminus of the peptide into the core of the receptor to enable activation, but with differences in binding poses in the C-terminus explaining in part the ligand selectivity of each receptor [13]. Empirica ...

[11] = 0.2 nM P38 (EC80), SY5Y_CBS, mean ± SEM, three independent experiments, Figure 11B, read-out: IC50 of P6-38 C-terminal mutants in CBS assay
[12] = 1 nM P38, average of two independent experiments, read-out: IC50 Average in ELISA assay
[13] = 1 nM P38, range of two independent experiments, read-out: IC50 Range in ELISA assay

pituitary adenylate cyclase-activating polypeptide (PACAP) 1-27 (from UniProt P18509 132-158)
EC80 of cAMP elevation (CBS assay) in SY5Y CBS cells [1]: 0.0002 µM

PACAP(6-38) (peptide)
IC50 of inhibition of P27-induced cAMP elevation (CBS assay) in SY5Y CBS cells; pair that is blocked: m2 + m18 [1]: 0.02 µM | IC50 of inhibition of P38-induced cAMP elevation (CBS assay) in SY5Y CBS cells; pair that is blocked: m1 + m18 [1]: 0.1 µM

CSCC[C@H](NC(=O)[C@H](CCC(N)=O)NC(=O)[C@H](CCCCN)NC(=O)[C@H](CCCNC(=N)N)NC(=O)[C@H](Cc1ccc(O)cc1)NC(=O)[C@H](CCCNC(=N)N)NC(=O)[C@H](CO)NC(=O)[C@H](Cc1ccc(O)cc1)NC(=O)[C@H](CO)NC(=O)[C@H](CC(=O)O)NC(=O)[C@@H](NC(=O)[C@@H](N)Cc1ccccc1)[C@@H](C)O)C(=O)N[C@@H](C)C(=O)N[C@H](C(=O)N[C@@H](CCCCN)C(=O)N[C@@H](CCCCN)C(=O)N[C@@H](Cc1ccc(O)cc1)C(=O)N[C@@H](CC(C)C)C(=O)N[C@@H](C)C(=O)N[C@@H](C)C(=O)N[C@H](C(=O)N[C@@H](CC(C)C)C(=O)NCC(=O)N[C@@H](CCCCN)C(=O)N[C@@H](CCCNC(=N)N)C(=O)N[C@@H](Cc1ccc(O)cc1)C(=O)N[C@@H](CCCCN)C(=O)N[C@@H](CCC(N)=O)C(=O)N[C@@H](CCCNC(=N)N)C(=O)N[C@H](C(=O)N[C@@H](CCCCN)C(=O)N[C@@H](CC(N)=O)C(=O)N[C@@H](CCCCN)C(N)=O)C(C)C)C(C)C)C(C)C [P6-38, reference compound]
IC50 [2, 11]: 0.117 ± 0.019 µM | IC50 ([2]; IC50 against P38 (Figure 9C), 0.2 nM P38, CBS assay, mean ± SEM, three independent experiments): 0.052 ± 0.013 µM | IC50 ([2]; IC50 against P38 (estimated from Figure 5B), 0.2 nM P38 (EC80), SY5Y_CBS, CBS assay): ~0.1 µM | IC50 [3, 12]: 0.114 µM | IC50 [3, 13]: 0.086 to 0.142 µM | IC50 ([4]; IC50 against P27 (estimated from Figure 5B), 0.2 nM P27 (EC80), SY5Y_CBS): ~0.02 µM

FTDSYSRYRKQMAVKKYLAAVL-NH2 [P6-27]
IC50 ([2]; 0.2 nM P38 (EC80), SY5Y_CBS, three independent experiments, Figure 11B, read-out: IC50 of P6-38 C-terminal mutants in CBS assay): > 1 µM | IC50 [3, 12]: 3.31 µM | IC50 [3, 13]: 0.37 to 6.25 µM | IC50 ([4]; IC50 against P27 (Figure 8), 0.2 nM P27, SY5Y_CBS, 3 independent experiments): ~0.1 µM | IC50 ([4]; IC50 against P27, 0.2 nM P27 (EC80), mean ± SEM, n = 3, Figure 7C): 0.2 ± 0.055 µM

pituitary adenylate cyclase-activating polypeptide (PACAP) 1-38 (HSDGIFTDSYSRYRKQMAVKKYLAAVLGKRYKQRVKNK-NH2) [P38, endogenous PAC1 agonist]
activation of endogenous PAC1 [5]: can be activated by P38 | agonist response (cAMP) [6]: highly responsive to P38 and P27 with similar potency and efficacy

vasoactive intestinal peptide [VIP]
agonist response / relative agonist potency [7]: VIP is a less potent agonist | potency relative to P27 and P38 (times less potent) [7]: about 100 times | EC80 (approximate) ([7]; Figure 5A): ~ 20 nM | EC80 ([7]; mean ± SEM, n = 3): 0.02 ± 0.0062 µM | Hill Slope ([7]; mean ± SEM, n = 3): 1.78 ± 0.35 | relative potency of PACAP and VIP [8]: the potency of PACAP was similar to VIP | response relative to HEK293_CBS_hPAC1 level ([8]; IBMX pretreated, luminescence): less than 5% | agonist response (cAMP) [6]: highly specific for activation by PACAP, compared to the related peptide VIP

PACAP(6-27) (peptide)
IC50 of inhibition of P27-stimulated (0.2 nM) cAMP elevation (CBS assay) in SY5Y CBS cells; pair that is blocked: m2 + m18 [9]: 0.1 µM | percent to which P38-induced (0.2 nM) cAMP elevation is blocked (CBS assay) in SY5Y CBS cells, antagonist up to 10 μM; pair that is blocked: m1 + m18 [9]: 50%

FTDSYSRYRKQMAVKKYLAAVLGK-NH2 [P6-29]
IC50 [2, 11]: > 0.5 µM | IC50 [3, 12]: 1.25 µM | IC50 [3, 13]: 0.35 to 2.15 µM

P27: PACAP 1-27, endogenous PAC1 agonist (HSDGIFTDSYSRYRKQMAVKKYLAAVL; ends and bridges not checked)
agonist response (cAMP) [6]: highly responsive to P38 and P27 with similar potency and efficacy

FTDSYSRYRKQMAVKKYLAAVLGKR-NH2 [P6-30]
IC50 [2, 11]: 0.084 ± 0.026 µM | IC50 [3, 12]: 0.175 µM | IC50 [3, 13]: 0.052 to 0.297 µM

maxadilan
activity at PAC1 [10]: agonist

HSDAVFTDNYTRLRKQMAVKKYLNSILN [vasoactive intestinal peptide]
EC80 of cAMP elevation (CBS assay) in SY5Y CBS cells [1]: 0.02 µM
